# Reference: patent publication US20210246208A1, “COMBINED INHIBITION OF PD-1/PD-L1, TGFB AND DNA-PK FOR THE TREATMENT OF CANCER” (MERCK PATENT GMBH, priority 2018, published 2021)
# Columns and labels:
# [1] = 10 mg/kg dose; cited from earlier work
# MC38 tumors = assay: M3814 and avelumab in murine colon tumor model MC38 (Example 1); assay type: in vivo, C57BL6/N mice; details: M3814 150 mg/kg orally once daily, avelumab 400 μg/mouse i.v. days 3, 6, 9; for median time the tumors needed to double in size compared to initial volume at day 0: MC38 in C57BL6/N mice, Kaplan-Meyer evaluation; for T/C value: calculated at day 13
# Source text: M3814 was applied daily started from day 0; Avelumab was applied on days 3, 6 and 9.
# This model allows the use of immunocompetent mice, a necessary requirement to study the T-cell mediated antitumor effect of Avelumab. The experimental set up included the induction of MC38 tumors in C57BL6/N mice by injection of 1×10^6 tumor cells into the right flank of the animals. Tumor growth was followed over time by measuring length and width using a caliper. When tumors were established to an average size of 50-100 mm^3, mice were subdivided in 4 treatment groups with 10 animals each, and treatment started. This day was defined as day 0. Group 1 received vehicle treatment. Group 2 received M3814 orally once daily at 150 mg/kg in a volume of 10 ml/kg. Group 3 received avelumab intravenously once daily at 400 μg/mouse in a volume of 5 ml/kg on days 3, 6 and 9. Group 4 received M3814 orally once daily at 150 mg/kg in a volume of 10 ml/kg and avelumab intravenously once daily at 400 μg/mouse in a volume of 5 ml/kg on days 3, 6 and 9.
# [2] = test system: EMT, fibrosis and VEGF pathway gene signatures in 4T1 tumor tissue; assay: RNAseq gene signatures of 4T1 tumor tissue (Example 3G); assay type: in vivo, BALB/c mice; details: tumors harvested day 6
# Procedure: Tumor tissues were harvested at Day 6 for RNAseq analysis. Gene expression signatures associated with (A) EMT, (B) fibrosis, and (C) VEGF pathway signatures are presented as box plots. Signature scores are defined as the mean log2 (fold change) among all genes in the signature.
# RNAseq was performed with Qiagen targeted RNAseq panels consisting of 1278 total genes. EMT and fibrosis gene signatures were based on Qiagen gene lists and the VEGF pathway signature was based on the Biocarta VEGF pathway in Broad's Canonical Pathways. For these gene sets, signature scores are defined as the mean log2 (fold-change) among all genes in each gene signature. These were calculated by adding a pseudocount of 0.5 TPM to all genes and samples, determining the log2 (TPM), then subtracting the median log 2-TPM for each gene across all samples from the log2-TPM for each gene. Signature scores for gene sets are shown as boxplots.
# DNA-PK = DNA-PK (Homo sapiens, UniProt P78527); assay: Crystallographic and enzyme kinetics studies on DNA-PK; assay type: biochemical
# Source text: DNA-PK, together with five additional protein factors (Ku70, Ku80, XRCC4, Ligase IV and Artemis) plays a critical role in the repair of DSB via NHEJ. Kinase activity of DNA-PK is essential for proper and timely DNA repair and the long-term survival of cancer cells.
# 4T1 mammary tumors = assay: 4T1 mammary tumor model, tumor volume and survival (Example 3A); details: concurrent dosing; day 10; Trap 492 μg day 0, 2, 4; radiation 8 Gy day 0-3; M3814 150 mg/kg p.o. q.d. day 0-14
# Procedure: BALB/c mice were inoculated intramuscularly (i.m.) with 0.5×10^5 4T1 cells (day −6) and treated (n=10 mice/group) with (A-C) isotype control (400 μg i.v.; day 0, 2, 4)+vehicle control (0.2 mL, orally [per os; p.o.], once daily [quaque die; q.d.], day 0-14), M7824 (492 μg i.v.; day 0, 2, 4), radiation (8 Gy, day 0-3), M3814 (150 mg/kg, p.o, q.d., day 0-14), M7824+RT, M7824+M3814, RT+M3814, or M7824+RT+M3814; or (D-F) isotype control (400 μg i.v.; day 4, 6, 8)+vehicle control (0.2 mL, (p.o.), (q.d.), day 0-14), M7824 (492 μg i.v.; day 4, 6, 8), radiation (8 Gy, day 0-3), M3814 (150 mg/kg, p.o, q.d., day 0-14), M7824+RT, M7824+M3814, RT+M3814, or M7824+RT+M3814. A-B, D-E, Tumor volumes were measured twice weekly and presented as (A, D) mean±SEM or (B, E) individual tumor volumes. P-values were calculated by two-way RM ANOVA with Tukey's post-test. C, F, For survival analysis, mice were sacrificed when tumor volumes reached ≈2000 mm^3 and median survival times were calculated.
# For efficacy and survival studies, 4T1 cells, 0.5×10^5, were inoculated intramuscularly (i.m.) in the thigh of BALB/c mice on day −6. […]
# Tumor sizes for the 4T1 and MC38 models were measured twice per week with digital calipers and recorded automatically using WinWedge software. Tumor volumes were calculated with the following formula: tumor volume (mm^3)=tumor length×width×height×0.5236. […]
Compound,pharmacokinetics profile [1],receptor occupancy [1],tolerability [1],median time the tumors needed to double in size compared to initial volume at day 0 (MC38 tumors) [days],T/C value (MC38 tumors) [%],EMT signature score [2],fibrosis signature score [2],inhibition of DNA-PK (DNA-PK),tumor volume (4T1 mammary tumors)
avelumab: fully human monoclonal antibody of the immunoglobulin (Ig) G1 isotype that selectively binds to PD-L1,predictable pharmacokinetics profile,excellent receptor occupancy,well tolerated,13,60,,,,
"COc1ccc([C@@H](O)c2cc(-c3ncnc4cc(N5CCOCC5)ccc34)c(F)cc2Cl)nn1 [Compound M3814, (S)-[2-chloro-4-fluoro-5-(7-morpholin-4-yl-quinazolin-4-yl)-phenyl]-(6-methoxypyridazin-3-yl)-methanol]",,,,10,47,no effect on the EMT signature,significantly decreased the score,potent and selective ATP-competitive inhibitor of DNA-PK,did not significantly affect tumor growth
